Results as given in patent US6514486B1, “Composition for topical application comprising at least one iminophenol compound” (L'Oreal, priority 1997, dated 2003).

Test system: coculture of keratinocytes and of melanocytes
Assay: depigmenting activity test: inhibition of melanogenesis on a coculture of keratinocytes and of melanocytes
Format: cell-based
Settings: for Category (maximum depigmenting activity): inhibition of melanogenesis with respect to the control; for IC50: coculture of keratinocytes and melanocytes, read-out: IC50 (concentration at which 50% inhibition of melanogenesis is observed)
Experimental: This test corresponds to that described in Patent FR 2,734,825, filed by the Applicant Company, and in the article by R. Schmidt, P. Krien and M. Régnier, Anal. Biochem., 235(2), 113-18 (1996). This test is thus carried out on a coculture of keratinocytes and of melanocytes.
The IC50 value, which corresponds to the micromolar concentration (μM) at which 50% inhibition of melanogenesis is observed, is determined for each compound tested.
Furthermore, a category is given to each of these compounds for their maximum depigmenting activity:
category 1: 10 to 30% inhibition of melanogenesis with respect to the control (same experiment without compound to be tested);
category 2: 30 to 60% inhibition of melanogenesis with respect to the control (same experiment without compound to be tested);
category 3: 60 to 100% inhibition of melanogenesis with respect to the control (same experiment without compound to be tested).

Compound	Category (maximum depigmenting activity) (at 500 μM)	IC50 [µM]	Category (maximum depigmenting activity) (at 50 μM)
O=c1cc(CO)occ1O [Kojic acid]	2 at 500 μM (category 2: 30 to 60% inhibition of melanogenesis with respect to the control)	500	
CN(C)C=Nc1ccc(O)cc1 [N′-(4-hydroxyphenyl)-N,N-dimethylformamidine]		200	2 at 50 μM (category 2: 30 to 60% inhibition of melanogenesis with respect to the control)
